# “Also recorded” adds a separate entry of the source. Read-outs that look alike come from different tables or passages of the source.
# Legend:
# human dermic fibroblasts [1] = assay: Scratch test assay; format: cell-based
# Protocol: (§1) The fibroblasts, cultivated in culture medium DMEM (EuroClone) additioned with 10% of Fetal Bovine Serum (EuroClone) and 1% of penicillin/streptomycin (Sigma-Aldrich), were kept in incubator at 37° C., 5% of CO2 until reaching the full confluence which corresponds approximately to 1.2-1.3*10^6 cells. After detachment from the culture flasks (T75) with a solution of trypsin/EDTA, 1.5-2.5*10^5 or 4.0*10^5 fibroblasts were respectively plated in 60-mm or 100-mm wide Petri dishes for the subsequent treatments.
# In six-well plates, 150,000 fibroblasts/well were plated and left to proliferate until reaching a confluence of 80-90%. At this point, defined time zero (T0), the cellular monolayer is damaged by creating a vertical groove corresponding to the well diameter.
# postoperative fibrosis = conditions: after 5 years, mitomycin C in intraoperative therapy (before: 24-74% after 4 years); cited from earlier work
# human dermic fibroblasts [2] = format: cell-based; conditions: for total cells after 24 hours of treatment: human
# Protocol: as §1
# The fibroblasts, cultivated in ninety-six-well plates, were divided into the experimental groups: ctr, Mito and Myr. 24 hours after sowing (T0), the controls were collected for counting the live and dead cells and one proceeded with the treatment of the groups Mito and Myr for the subsequent 24 hours, with the respective substances. After detachment with a solution of trypsin/EDTA, the fibroblasts were isolated by centrifugation (100 g×6 minutes) and the obtained precipitate was resuspended in phosphate buffer. To the cellular suspension, 10% of 0.4% Trypan Blue dye solution was added. The live cells and the dead cells, coloured blue for the intracellular permeation of the dye through the damaged plasmatic membrane, are counted by using Bürker camera (Fabiani C., et al., Naunyn-Schmiedebergs Arch. Pharmacol. 2017; 390:741-751).
# fibroblasts [3] = conditions: Josamycin 69.4 μg/ml (JM69.4); cited from earlier work
# [4] = system: CTGF (Connective Tissue Growth Factor); assay: RT-PCR expression of transcript CTGF in fibroblasts; format: cell-based, human; conditions: myriocin 50 μM 1 hour pretreatment + 24 hours with TGFβ 5 ng/ml
# Protocol: (§2) Expression of the transcript (mRNA) of αSMA, CTGF, MMP-9 evaluated by RT-PCR, in fibroblasts: control (ctr); stimulated with TGFβ (TGFβ); pretreated 1 hour with Myriocin and for the subsequent 24 hours in combination with TGFβ (Myr/TGFβ); pretreated 5 minutes with Mitomycin C, washed and treated for the subsequent 24 hours with TGFβ (Mito/TGFβ); pretreated 1 hour with Myriocin and for the subsequent 24 hours with Myriocin (Myr); pretreated 5 minutes with Mitomycin C, washed and for the subsequent 24 hours with culture medium (Mito). The results represent the average±standard error of 5 experiments and they are represented as variation with respect to the control (ratio between the expression in the various groups and the control). The control is set equal to 1 and designated in figure with the dotted line. […]
# (§3) The following transcripts of interest were analysed: • αSMA (α Smooth Muscle Actin): marker of the activation of the fibroblasts to miofibroblasts; • CTGF (Connective Tissue Growth Factor): protein of the extracellular matrix with pro-fibrotic activity; • MMP-9 (Matrix metalloproteinase 9): enzyme which degrades the proteins of the extracellular matrix.
# human dermic fibroblasts [5] = format: cell-based; conditions: fibroblasts activated with TGFβ, compared with mitomycin C
# Protocol: The anti-fibrotic activity of myriocin, compared to that of mitomycin C, was evaluated in vitro by using human dermic fibroblasts of healthy subjects, available commercially.
# as §1
# The cells were divided into six experimental groups: • 1. control group without treatment (denominated ctr) • 2. group treated with TGFβ (denominated TGFβ) • 3. group treated with Myriocin and TGFβ (denominated Myr/TGFβ) • 4. group treated with Mitomycin C and TGFβ (denominated Mito/TGFβ) • 5. group treated with Myriocin (denominated Myr) • 6. group treated with Mitomycin C (denominated Mito)
# On the day of treatment, in groups ctr, TGFβ, Myr, Myr/TGFβ the culture medium was replaced by fresh medium. The groups Myr and Myr/TGFβ were pretreated for 1 hour with myriocin 5 mM (Sigma-Aldrich) so as to obtain a final concentration of 50 μM. […]
# [6] = system: αSMA (α Smooth Muscle Actin); assay: RT-PCR expression of transcript αSMA in fibroblasts; format: cell-based, human; conditions: myriocin 50 μM 1 hour pretreatment + 24 hours with TGFβ 5 ng/ml
# Protocol: as §2, §3
# fibroblasts [7] = assay: proliferation/vitality MTT assay; format: cell-based; conditions: 24 hours, Myriocin 50 μM, not treated fibroblasts = 100%
# Protocol: These proliferation data result to be an improvement with respect to those obtained by the authors with JM47.2, which is equivalent to a concentration of approximately 56 μM, not considered among the effective concentrations in anti-fibrotic sense.
# [8] = molecular target: T1, serine-palmitoyl transferase (Homo sapiens, UniProt O15269+O15270); assay: mass spectrometry of the ceramide content of fibroblasts; format: cell-based; conditions: myriocin 50 μM
# T1 construct: the fibroblasts were isolated by centrifugation; endogenous in cells
# T1 sequence (O15269 1-473): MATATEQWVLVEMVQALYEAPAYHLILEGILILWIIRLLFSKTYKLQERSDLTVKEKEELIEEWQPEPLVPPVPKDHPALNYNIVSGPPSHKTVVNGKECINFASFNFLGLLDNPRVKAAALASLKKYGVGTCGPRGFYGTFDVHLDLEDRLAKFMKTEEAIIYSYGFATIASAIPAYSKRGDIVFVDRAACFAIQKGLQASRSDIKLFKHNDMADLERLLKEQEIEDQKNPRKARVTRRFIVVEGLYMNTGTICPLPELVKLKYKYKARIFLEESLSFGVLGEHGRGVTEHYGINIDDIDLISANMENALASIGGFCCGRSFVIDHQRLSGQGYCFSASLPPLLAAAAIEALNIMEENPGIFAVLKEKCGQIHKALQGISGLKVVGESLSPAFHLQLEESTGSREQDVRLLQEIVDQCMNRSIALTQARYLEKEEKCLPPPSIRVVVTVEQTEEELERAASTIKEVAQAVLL
# T1 sequence (O15270 1-562): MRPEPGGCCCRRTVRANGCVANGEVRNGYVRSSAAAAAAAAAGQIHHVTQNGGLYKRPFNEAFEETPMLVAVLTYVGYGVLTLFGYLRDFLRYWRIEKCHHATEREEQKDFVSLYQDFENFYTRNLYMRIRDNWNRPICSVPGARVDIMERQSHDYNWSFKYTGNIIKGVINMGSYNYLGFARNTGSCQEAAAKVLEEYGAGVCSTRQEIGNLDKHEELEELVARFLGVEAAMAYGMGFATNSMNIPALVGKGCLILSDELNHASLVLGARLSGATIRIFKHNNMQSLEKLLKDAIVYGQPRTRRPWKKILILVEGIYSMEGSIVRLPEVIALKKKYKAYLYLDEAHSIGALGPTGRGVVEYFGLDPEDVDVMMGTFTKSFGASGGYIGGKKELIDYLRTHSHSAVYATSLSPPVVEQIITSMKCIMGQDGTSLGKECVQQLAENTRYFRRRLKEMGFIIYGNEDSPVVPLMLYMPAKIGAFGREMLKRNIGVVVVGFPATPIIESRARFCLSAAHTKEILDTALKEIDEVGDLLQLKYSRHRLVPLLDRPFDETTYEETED
# T1 sequence (Q969W0 1-71 partner): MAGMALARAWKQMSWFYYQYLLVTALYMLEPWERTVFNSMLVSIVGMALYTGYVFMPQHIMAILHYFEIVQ
# Protocol: On the day of treatment, in groups ctr, TGFβ, Myr, Myr/TGFβ the culture medium was replaced by fresh medium. The groups Myr and Myr/TGFβ were pretreated for 1 hour with myriocin 5 mM (Sigma-Aldrich) so as to obtain a final concentration of 50 μM. […] The pretreatment with mitomycin C, lasting 5 minutes to simulate the administration time in the operating room of the drug on the patient suffering from glaucoma, was interrupted by two washes, each one lasting 2 minutes, with phosphate buffer (PBS). To the groups TGFβ, Myr/TGFβ and Mito/TGFβ, TGFβ 200 ng/ml is then added to obtain a final concentration of 5 ng/ml, as reported in literature (Wu N. et al., Mol Cell Biochem. 2020; 470:175-188). The fibroblasts were then put in incubator for 24 hours, until performing the different analyses.
# After detachment with a solution of trypsin/EDTA, the fibroblasts were isolated by centrifugation (100 g×6 minutes). The obtained precipitate was resuspended in phosphate buffer (PBS), centrifuged at 100 g×6 minutes, resuspended again in phosphate buffer (PBS) and centrifuged at 500 g×5 minutes at 4° C. The precipitate was resuspended in 100 μl of PBS containing a mixture of protease inhibitors (Protease Inhibitor Cocktails, EDTA-free, Roche) and kept at −20° C. until use. The extraction of the lipids and the analysis of the samples for evaluating the ceramide content, whose synthesis is locked by inhibiting the enzyme serine-palmitoyl transferase by Myr, follow published protocols (Morano C. et al., Metabolites. 2022; 12 (5): 450).
# collagen = assay: transcription and translation of collagen in fibroblasts (FIG. 4); format: cell-based; conditions: pre-treated 1 hour with Myriocin 50 µM, then 24 hours in combination with TGFβ 5 ng/ml
# Protocol: FIG. 4: Ctrl: not treated fibroblasts; TGFβ: fibroblasts treated 24 hours with TGFβ 5 ng/ml; TGFβ/Myr: fibroblasts pre-treated 1 hour with Myriocin 50 µM and for subsequent 24 hours in combination with TGFβ 5 ng/ml; TGFβ/Mito: fibroblasts pre-treated 5 minutes with Mitomycin 50 µM, and for subsequent 24 hours with TGFβ 5 ng/ml in absence of Mitomycin.
# [9] = system: MMP-9 (Matrix metalloproteinase 9); assay: RT-PCR expression of transcript MMP-9 in fibroblasts; format: cell-based, human; conditions: myriocin 50 μM 1 hour pretreatment + 24 hours with TGFβ 5 ng/ml
# Protocol: as §2, §3
compound,measurement,setting,value
CO[C@@]12[C@H](COC(N)=O)C3=C(C(=O)C(C)=C(N)C3=O)N1C[C@@H]1N[C@@H]12 [Mitomycin C],cellular death,"human dermic fibroblasts [1]; 50 μM, 24 and 48 hours",induced a progressive cellular death
same,migration of fibroblasts after damage of the cellular carpet,"human dermic fibroblasts [1]; 50 μM, 24 and 48 hours, listed as Mitomycin",migrate only partially
same,migration of fibroblasts after damage of the cellular carpet,"human dermic fibroblasts [1]; 50 μM, 24 and 48 hours, listed as mitomycin C",reduced the migration of fibroblasts
same,morphological change of fibroblasts,human dermic fibroblasts [1]; between T1 (24 hours) and T2 (48 hours),progressive morphological change (from tapering to rounded)
same,percentage of failure of the surgical therapy,postoperative fibrosis,23-51%
same,change of total cells after 24 hours,human dermic fibroblasts [2],halved
same,total cells after 24 hours of treatment,human dermic fibroblasts [2],5466 total cells/well
CO[C@@H]1[C@@H](O[C@@H]2O[C@H](C)[C@@H](O[C@H]3C[C@@](C)(O)[C@@H](OC(=O)CC(C)C)[C@H](C)O3)[C@H](N(C)C)[C@H]2O)[C@@H](CC=O)C[C@@H](C)[C@@H](O)/C=C/C=C/C[C@@H](C)OC(=O)C[C@H]1OC(C)=O [Josamycin],proliferation percentage of the fibroblasts,fibroblasts [3],less than 50%
CCCCCCC(=O)CCCCCC/C=C/C[C@@H](O)[C@H](O)[C@@](N)(CO)C(=O)O [Myriocin],migration of fibroblasts after damage of the cellular carpet,"human dermic fibroblasts [1]; 50 μM, 24 and 48 hours",migrate only partially
same,migration of fibroblasts after damage of the cellular carpet,"human dermic fibroblasts [1]; 50 μM, 24 and 48 hours, listed as myriocin",reduced the migration of fibroblasts
same,reduction of CTGF transcript expression increase induced by TGFβ,[4],more effective than mitomycin C
same,anti-fibrotic efficacy,human dermic fibroblasts [5],comparable to mitomycin C
same,anti-fibrotic efficacy,human dermic fibroblasts [5]; listed as myriocin,comparable to that of the drug mitomycin C
same,reduction of αSMA transcript expression increase induced by TGFβ,[6],more effective than mitomycin C; also recorded: reduces the expression of αSMA
same,% proliferation (relative proliferation/vitality index),fibroblasts [7],higher than 60%
same,% proliferation (relative proliferation/vitality index),fibroblasts [7]; listed as MYR,62%
same,reduction of ceramide level with respect to basal ctr,[8]; Myr group vs ctr,about 15%
same,reduction of dihydroceramide level with respect to basal ctr,[8]; Myr group vs ctr,~25%
same,reduction of ceramide level with respect to the group stimulated with TGFβ,"[8]; Myr/TGFβ vs TGFβ, TGFβ 5 ng/ml",~50%
same,reduction of dihydroceramide level with respect to the group stimulated with TGFβ,"[8]; Myr/TGFβ vs TGFβ, TGFβ 5 ng/ml",~60%
same,transcription (panel A) and translation (panel B) of collagen,collagen,capable of controlling the transcription (panel A) and the translation (panel B) of collagen
same,reduction of MMP-9 transcript expression increase induced by TGFβ,[9],more effective than mitomycin C; also recorded: reducing the expression of MMP-9
same,increase of total cells after 24 hours,human dermic fibroblasts [2]; after 24 hours vs T0,about 70%
same,total cells after 24 hours of treatment,human dermic fibroblasts [2],11733 total cells/well
